Consider 36 molecules from patent US11518760B2 (Liverpool School of Tropical Medicine, priority 2017, dated 2022).

pEC50: −log10 of the molar value.

The subject of this experiment is C6/36 Aedes albopictus cell line infected with Wolbachia pipientis (Wolbachia strain wAlbB). Nature of the experiment: In vitro insect cell line assay (anti-Wolbachia screen, SYTO 11 high content imaging). Conditions: 168 h; C6/36 Aedes albopictus cells infected with Wolbachia pipientis wAlbB, 7 days incubation, SYTO 11 imaging; read-out: In vitro anti-Wolbachia activity. The format is cell-based. As for the experimental part:
A C6/36 Aedes albopictus cell line infected with Wolbachia pipientis (Wolbachia strain wAlbB) derived from Aa23 A. albopictus cell line (O'Neill et al., 1997; Insect Mol Biol; Turner et al., (2006) J. Immunol. 7:1240-1249) was used to screen compounds. Cells were cultured in Leibovitz's L15+L-glutamine supplemented with heat-inactivated Foetal Calf Serum (HI-FCS), non-essential amino acids and tryptose phosphate broth. Culture medium was filter-sterilized through a 0.2 μm filter and stored at 4° C. Compounds were provided as 10 mM stocks in DMSO, diluted to 50 μM working stock to give final concentration of 5 μM on the test plate. Concentrated stocks were frozen at −20° C.
Prior to use in the screening assay, cell cultures were sub-passaged (6 days prior) to provide ˜90% confluent cells on Day 0 of screening assay. On Day 0 (assay set-up), the medium was removed from the stock culture flask and replaced with fresh medium. The cells were detached by scraping and cell density was calculated using an automated cell counter. The cells were then diluted at working density and aliquoted at 90 μl to each well of a Cell Carrier 384 well plate (Perkin Elmer). Cell plates were incubated at 26° C.
Control solution (DMSO-medium) was dispensed at 10 μl per well for “untreated” wells. Test solution (Drug-DMSO) was also dispensed at 10 μl (from working plate) per well for “treated” wells. The plates were incubated at 26° C., inside plastic wallet in incubator, for 7 days.
On Day 7, 25 μl of staining medium/dye (SYTO 11, Life Technologies) was added to each sample well and allowed to stain for 15 minutes in the dark. All the medium was removed from each sample well without disturbing the cells and replaced with 100 μl of fresh medium. Plates were imaged on the Operetta High Content Imaging system (Perkin Elmer) and analyzed using texture analysis through Harmony software (Perkin Elmer). The cell-based screen and analysis are described in detail in Clare et al. (2014) J Biomol Screen.
Consider `CC(C)Nc1nc(NCc2ccccc2S(C)(=O)=O)c2cccnc2n1` [Example 127, N^2-isopropyl-N^4-(2-(methylsulfonyl)benzyl)pyrido[2,3-d]pyrimidine-2,4-diamine], for which the pEC50 is 6.00 to 7.00.
As to `Cc1ccc(-c2cnc3ncnc(NCc4cccnc4C(F)(F)F)c3c2)cn1` [Example 181], the pEC50 is 4.00 to 6.00.
`N#CC1CN(c2nc(NCc3cccnc3C(F)(F)F)c3cccnc3n2)C1` [Example 237, 1-(4-(((2-(trifluoromethyl)pyridin-3-yl)methyl)amino)pyrido[2,3-d]pyrimidin-2-yl)azetidine-3-carbonitrile]: the pEC50 was 6.00 to 7.00.
On to `Oc1nc(NCc2ccccc2C(F)(F)F)c2cccnc2n1` [Example 157, 4-((2-(trifluoromethyl)benzyl)amino)pyrido[2,3-d]pyrimidin-2-ol], for which the pEC50 was 4.00 to 6.00.
For `CC1COCCN1c1nc(N2CCC2c2cccnc2C(F)(F)F)c2cccnc2n1` (stereo not drawn) [Example 219, 3-methyl-4-(4-(2-(2-(trifluoromethyl)pyridin-3-yl)azetidin-1-yl)pyrido[2,3-d]pyrimidin-2-yl)morpholine], the pEC50 was 8.00 to 9.00.
Then `FC1(F)CC2(CCN(c3nc(NCc4ccccc4C(F)(F)F)c4cccnc4n3)CC2)C1` [Example 260, 2-(2,2-difluoro-7-azaspiro[3.5]nonan-7-yl)-N-(2-(trifluoromethyl)benzyl)pyrido[2,3-d]pyrimidin-4-amine], with 8.00 to 9.00; and `FC(F)Sc1nc(NCc2cccnc2C(F)(F)F)c2cccnc2n1` [Example 191, 2-((difluoromethyl)thio)-N-((2-(trifluoromethyl)pyridin-3-yl)methyl)pyrido[2,3-d]pyrimidin-4-amine], with 6.00 to 7.00.
Consider `COc1ccc(CNc2nc(NC(C)C)nc3ccsc23)cc1OC` [Example 133, N^4-(3,4-dimethoxybenzyl)-N^2-isopropylthieno[3,2-d]pyrimidine-2,4-diamine], for which the pEC50 is 4.00 to 6.00.
With `FC(F)(F)c1ccccc1CNc1nc(Cl)nc2ccccc12` [Example 57, 2-chloro-N-(2-(trifluoromethyl)benzyl)quinazolin-4-amine], the pEC50 is 7.00 to 8.00.
With `Cc1nc(NCc2ccccc2C(F)(F)F)c2sccc2n1` [Example 55, 2-methyl-N-(2-(trifluoromethyl)benzyl)thieno[3,2-d]pyrimidin-4-amine], the pEC50 is 7.00 to 8.00.
For the molecule `CC(C)Nc1nc(NCc2ccccc2F)c2sccc2n1` [Example 11], the pEC50 is 6.00 to 7.00.
In the case of `COc1ccccc1CNc1nc(NC(C)C)nc2ccsc12` [Example 132, N^2-isopropyl-N^4-(2-methoxybenzyl)thieno[3,2-d]pyrimidine-2,4-diamine], the pEC50 was 4.00 to 6.00.
As to `CC(C)S(=O)(=O)c1nc(NCc2cccnc2C(F)(F)F)c2cccnc2n1` [Example 179, 2-(isopropylsulfonyl)-N-((2-(trifluoromethyl)pyridin-3-yl)methyl)pyrido[2,3-d]pyrimidin-4-amine], the pEC50 is 7.00 to 8.00.
As to `CC(C)Nc1nc(NCc2ccc(C(F)(F)F)cc2)c2cccnc2n1` [Example 129, N^2-isopropyl-N^4-(4-(trifluoromethyl)benzyl)pyrido[2,3-d]pyrimidine-2,4-diamine], the pEC50 was 6.00 to 7.00.
With `CC1(C)CN(c2nc(NCc3cccnc3C(F)(F)F)c3cccnc3n2)CCO1` [Example 239, 2-(2,2-dimethylmorpholino)-N-((2-(trifluororoethyl)pyridin-3-yl)methyl)pyrido[2,3-d]pyrimidin-4-amine] the figure was 9.00 to 11.00; with `CN(C)CCNc1nc(NCc2ccccc2C(F)(F)F)c2sccc2n1` [Example 89, N^2-(2-(dimethylamino)ethyl)-N^4-(2-(trifluoromethyl)benzyl)thieno[3,2-d]pyrimidine-2,4-diamine], 4.00 to 6.00; with `CC(C)(C)N(Cc1ccccc1C(F)(F)F)c1ncnc2ccsc12` [Example 85], 6.00 to 7.00.
With `COc1cc2c(NCc3cccnc3C(F)(F)F)nc(N3CCOCC3C)nc2nc1OC` (stereo not drawn) [Example 308, 6,7-dimethoxy-2-(3-methylmorphoIino)-N-((2-(trifluoromethyl)pyridin-3-yl)methyl)pyrido[2,3-d]pyrimidin-4-amine] the figure was 4.00 to 6.00.
As to `CC1CCN1c1nc(NCc2cccnc2C(F)(F)F)c2cccnc2n1` (stereo not drawn) [Example 172, 2-(2-methylazetidin-1-yl)-N-((2-(trifluoromethyl)pyridin-3-yl)methyl)pyrido[2,3-d]pyrimidin-4-amine], the pEC50 is 9.00 to 11.00.
Consider `FC1(F)CCN(c2nc(N3CCC3c3ccccc3C(F)(F)F)c3cccnc3n2)CC1` (stereo not drawn) [Example 213, 2-(4,4-difluoropiperidin-1-yl)-4-(2-(2-(trifluoromethyl)phenyl)azetidin-1-yl)pyrido[2,3-d]pyrimidine], for which the pEC50 was 7.00 to 8.00.
In the case of `CC(c1ccccc1C(F)(F)F)N(C)c1nc(C#N)nc2ccsc12` (stereo not drawn) [Example 74, 4-(methyl(1-(2-(trifluoromethyl)phenyl)ethyl)amino)thieno[3,2-d]pyrimidine-2-carbonitrile], the pEC50 was 4.00 to 6.00.
Then `CN(Cc1ccccc1C(F)(F)F)c1nc(Cl)nc2ccsc12` [Example 49, 2-chloro-N-methyl-N-(2-(trifluoromethyl)benzyl)thieno[3,2-d]pyrimidin-4-amine], with 8.00 to 9.00.
Turning to `FC(F)(F)c1ncccc1CNc1nc(N2CCOC3(CCCC3)C2)nc2ncccc12` [Example 272, 2-(6-oxa-9-azaspiro[4.5]decan-9-yl)-N-((2-(trifluoromethyl)pyridin-3-yl)methyl)pyrido[2,3-d]pyrimidin-4-amine], the pEC50 was 9.00 to 11.00.
On to `FC(F)(F)c1ccccc1CNc1nc(N2CCOCC23CCC3)nc2ncccc12` [Example 285, 2-(8-oxa-5-azaspiro[3.5]nonan-5-yl)-N-(2-(trifluoromethyl)benzyl)pyrido[2,3-d]pyrimidin-4-amine], for which the pEC50 was 7.00 to 8.00.
`CC(C)Nc1nc(NCc2ccccc2S(C)(=O)=O)c2ccccc2n1` [Example 112, N^2-isopropyl-N^4-(2-(methylsulfonyl)benzyl)quinazoline-2,4-diamine]: the pEC50 was 6.00 to 7.00.
Consider `FC(F)(F)c1ccccc1CNc1nc(NCCN2CCCC2)nc2ccsc12` [Example 91, N^2-(2-(pyrrolidin-1-yl)ethyl)-N^4-(2-(trifluoromethyl)benzyl)thieno[3,2-d]pyrimidine-2,4-diamine], for which the pEC50 is 4.00 to 6.00.
`C[C@H]1COCCN1c1nc(NCc2cccnc2C(F)(F)F)c2cccnc2n1` [Example 210, (S)-2-(3-methylmorpholino)-N-((2-(trifluoromethyl)pyridin-3-yl)methyl)pyrido[2,3-d]pyrimidin-4-amine]: the pEC50 was 8.00 to 9.00.
Then `N#CC1CN(c2nc(NCc3ccccc3C(F)(F)F)c3cccnc3n2)CCO1` (stereo not drawn) [Example 283, 4-(4-((2-(trifluoromethyl)benzyl)amino)pyrido[2,3-d]pyrimidin-2-yl)morpholine-2-carbonitrile], with 9.00 to 11.00; and `CC(C)Nc1nc(NCc2ccc(C(F)(F)F)cc2)c2sccc2n1` [Example 109, N^2-isopropyl-N^4-(4-(trifluoromethyl)benzyl)thieno[3,2-d]pyrimidine-2,4-diamine], with 4.00 to 6.00; and `FC1CCN(c2nc(NCc3cccnc3C(F)(F)F)c3cccnc3n2)CC1` [Example 195, 2-(4-fluoropiperidin-1-yl)-N-((2-(trifluoromethyl)pyridin-3-yl)methyl)pyrido[2,3-d]pyrimidin-4-amine], with 8.00 to 9.00.
In the case of `Cc1nc(N(C)Cc2ccccc2C(F)(F)F)c2sccc2n1` [Example 63, N,2-dimethyl-N-(2-(trifluoromethyl)benzyl)thieno[3,2-d]pyrimidin-4-amine], the pEC50 was 7.00 to 8.00.
For the molecule `CC(C)Sc1nc(NCc2cccnc2C(F)(F)F)c2cccnc2n1` [Example 164, 2-(isopropylthio)-N-((2-(trifluoromethyl)pyridin-3-yl)methyl)pyrido[2,3-d]pyrimidin-4-amine], the pEC50 is 8.00 to 9.00.
Then `CC(C)Nc1nc(NCc2ccc(C#N)cc2)c2ncccc2n1` [Example 121, N^4-(4-cyanobenzyl)-N^2-isopropylpyrido[3,2-d]pyrimidine-2,4-diamine], with 4.00 to 6.00.
Take `CCNC(=O)Nc1nc(NCc2cccnc2C(F)(F)F)c2cccnc2n1` [Example 207, 1-ethyl-3-(4-(((2-(trifluoromethyl)pyridin-3-yl)methyl)amino)pyrido[2,3-d]pyrimidin-2-yl)urea]: the pEC50 was 6.00 to 7.00.
With `CC1COCCN1Cc1nc(NCc2cccnc2C(F)(F)F)c2cccnc2n1` (stereo not drawn) [Example 229, 2-((3-methylmorpholino)methyl)-N-((2-(trifluoromethyl)pyridin-3-yl)methyl)pyrido[2,3-d]pyrimidin-4-amine] the figure was 4.00 to 6.00.
Take `CC(C)Nc1nc(NCc2ccc(C#N)cc2)c2sccc2n1` [Example 116, N^4-(4-cyanobenzyl)-N^2-isopropylthieno[3,2-d]pyrimidine-2,4-diamine]: the pEC50 was 6.00 to 7.00.
